The data set concerns human mescenchymal stem cell (hMSCs). Particulars: MTT. The protocol:
The MTT colorimetric cell viability provides a straightforward and quantifiable method for determining cell viability in a wide variety of cell types. An MTT assay was used to determine the cytotoxicity of Mg, Sr, Cu, and/or Zn ions in human mescenchymal stem cells. In a typical assay 2.8×10^4 cells/cm^2 human mescenchymal stem cell (hMSCs) were cultured in a low glucose DMEM culture medium supplemented with 10% (v/v) fetal bovine serum (FBS, Biowest, France), antibiotics (100 U/ml of penicillin and 100 μg/ml of streptomycin), and 2 mM L-glutamine using 96-well tissue culture plates. After one day of cell culture, testing solutions with a range of concentrations (Table 1) of different potential ions were added to the wells. The MTT solution was prepared by adding thiazolyl blue tetrazolium bromide powder to the phosphate buffered saline (PBS, OXOID Limited, England) and 10 μL of 5 mg/mL MTT solution was added on the next day. 100 μL of 10% sodium dodecyl sulfate (SDS, Sigma, USA) in 0.01 M hydrochloric acid was added to each well after four hours of culturing and incubated at 37° C. in an atmosphere of 5% CO2 and 95% air overnight. Finally, the absorbance was recorded by a multimode detector at a wavelength of 570 nm with a reference wavelength of 640 nm. Cell viability was quantified from the absorbance readings.

`O=S(=O)([O-])[O-].[Cu+2]` [Cu ions, CuSO4]: the “ion concentration with loss of viability” value (ion tested independently) is given as at least 25 ppm.

For the compound `[Cl-].[Cl-].[Mg+2]` [Mg ion, MgCl2], where the note is “ion tested independently”, the “ion concentration above which most of the cells became non-viable” value is listed as “exceeded 1000 ppm” and the “ion concentration above which viability began to decrease” value is recorded as “exceeded 400 ppm”. In the case of `[Cl-].[Cl-].[Sr+2]` [Sr ion, SrCl2], where the note is “ion concentrations of 100 to 400 ppm”, the “cell viability relative to control cells” value came to 115%. Also, the cell viability (commonly the share of living cells, or the viability signal relative to a control) (treatment with up to 1,000 ppm) is about 100%. `[Cl-].[Cl-].[Zn+2]` [Zn ions, ZnCl2]: under “ion tested independently”, the “ion concentration above which significant cell death was found” value was “exceeded 1 ppm”.
